“And” between values parts separate entries of the source, which are not always exact repeats. Equal values may be shown once.
What was measured:
egg-laying hens [1] = assay: Second test: feed with powdery acetylcysteine added given to egg-laying hens; type: in vivo, chicken (Julia Light); conditions: for egg production rate: 28 days, 42- to 46-week old hens
Method: The second test was performed by giving a feed, to which powdery acetylcysteine was added, to egg-laying hens.
120 individuals having an egg production rate of 82% or more 4 weeks before the start of the preparative raising were selected from Julia Light birds (281-day old when partitioned) which were being raised in the scientific feed research center of Japan Scientific Feeds Association to be fed.
Three zones were set: a control zone where a basic feed not having acetylcysteine added thereto was given, a first test zone (standard zone) where a feed comprising a basic feed to which 0.0014% acetylcysteine was added was given, and a second test zone (5-fold zone) where a feed comprising a basic feed to which 0.0072% acetylcysteine was added was given.
Four groups were assigned to each zone, and the basic feed was given for 14 days to accustom the tested hens to the test environment. After that, the feed corresponding to each zone was given for 4 weeks.
Also in the second test, a standard daily intake of acetylcysteine per bird is planned to be 1 mg per weight (Kg) of a tested hen. In the main test, from the weight at the start of preparative raising and the feed intake one week after the start of preparative raising, assuming that the weight of a tested hen was 1580 g and a daily feed intake per bird was 140 g, the amount of acetylcysteine to be added to the basic feed was set from the following expression: standard zone: amount (%) of acetylcysteine to be added to the basic feed=weight (1580 g)×acetylcysteine intake (1 mg/weight (Kg))/feed intake (114 g/day/bird)×100 5-fold zone: amount (%) of acetylcysteine to be added to the basic feed=weight (1580 g)×acetylcysteine intake (5 mg/weight (Kg))/feed intake (114 g/day/bird)×100 <Management of Raising>
The tested hens were individually managed in a terraced individual cage for egg-laying hens disposed in an open chicken house. A set of 10 continuous cages was used for each group, and a single empty cage was disposed between the zones. The feed and drinking water were continuously given. The light beams were controlled such that the bright period was 14 hours and the dark period was 10 hours.
A variation in weight, the average egg weight, the daily egg production amount, the feed intake, and the feed efficiency were subjected to analysis of variance by a method of one-way analysis of variance using the given feed as a factor, and the superiority in each interval was examined. The egg production rate was subjected to arcsine transformation, and the superiority of the difference between intervals was similarly examined. The culling hens were excluded from the average back to the start of the test, and the results of egg production and the like were summarized. The egg production rate during the test period was subjected to rejection test, and the individuals whose egg production rate was determined as abnormal were also excluded from the average back to the start of the test.
The scientific feed research center of Japan Scientific Feeds Association (821 Yoshikura, Naritashi, Chiba)
The test was performed for 42 days from September 21 to November 2, Heisei 28. The 14 days from September 21 to October 5, Heisei 28 was the preparative test period, and the 28 days from October 6 to November 2, Heisei 28 was the main test period.

egg-laying hens [2] = assay: First test: aqueous solution of acetylcysteine given to egg-laying hens as drinking water; type: in vivo, chicken (Julia Light in test zone, Julia in control zone)
Method: The first test was performed by giving an aqueous solution of acetylcysteine to egg-laying hens as drinking water.
Adult egg-laying hens were selected as the target animal for the test because data is readily collected. The point of time when the test was started was at off-peak times in egg laying.
Two breeds Julia and Julia Light were used.
For this reason, in the main test, Julia having a low feed conversion rate (high profitability) was raised in the control zone and Julia Light having a high feed conversion rate (low profitability) was raised in the test zone.
The number of hens in the test zone was 33412 Julia Light hens and that in the control zone was also 33412 Julia hens.
The test zone and the control zone were placed in Akagiyama Farm run by Takai Poultry Farm Y.K., where chickens are actually raised, to perform the test in an actual situation.
A windowless house was used because differences between individuals and differences in heath conditions are small.
The house was provided with a cage having a width of 380 mm, a length of 500 mm, and a height of 380 mm.
To avoid application of heat stress to the target chickens for the test, the test was performed for 166 days from October 21, Heisei 27 to April 3, Heisei 28. At a temperature inside the house of more than 27° C., the feed demand (feed intake) of the chickens will reduce due to heat stress.
A Kumiai Blend Feed “Akagikougen 17 Up for adult chicken” shown in FIG. 1 was given from October 21, Heisei 27 to February 13, Heisei 28, and a Kumiai Blend Feed “Akagikougen 16 Up for adult chicken” shown in FIG. 2 was given from February 23 to April 3, Heisei 28.
As the agent for improving a feed conversion rate, the agent for improving a survival rate, or the agent for improving the number of eggs laid by an egg-laying hen, an aqueous solution of acetylcysteine was given to Julia Light in the test zone as drinking water through the nipples disposed at both ends of the ceiling of the cage.
The concentration of acetylcysteine in drinking water was prepared such that 1 mg/day/Kg acetylcysteine was given to the egg-laying hens. Specifically, 3.3 L per day of a stock solution having an acetylcysteine concentration of 10% was used for 33412 Julia Light hens having a weight of about 2 Kg.
The frequency to give the agent for improving a feed conversion rate, the agent for improving a survival rate, or the agent for improving the number of eggs laid by an egg-laying hen was one time for 5 days.
Water not containing agent for improving a feed conversion rate, the agent for improving a survival rate, or the agent for improving the number of eggs laid by an egg-laying hen was given to Julia in the control zone through the nipple.
The lower columns in FIG. 3 show the difference in the number of deaths, the difference in the number of eggs laid, the average feed demand, the average egg production rate, and the average egg weight between the target chickens for the test and the control during the test period.
A smaller number of deaths and cullings of the target chickens for the test are preferred. A larger number of eggs laid are preferred. A smaller feed demand (feed intake) is preferred although it should be balanced with the egg production rate and the egg weight. A larger egg production rate is preferred. A larger egg weight and a larger average egg weight are preferred. The feed conversion rate of the target egg-laying hen for the test is calculated as a ratio of the total weight of eggs laid to the feed demand as described above. The feed demand is calculated as a product of the feed intake, the number of birds, and the survival rate. The total weight of eggs laid is calculated as a product of the number of birds, the egg production rate, and the average egg weight.
The feed conversion rate of the target egg-laying hen for the test is represented by a ratio of the amount of feed given to the total weight of eggs laid as described above. […]

[3] = test system: chickens for meat (broilers); assay: Third test: feed with powdery acetylcysteine added given to chickens for meat (broilers); type: in vivo, chicken (Chunky broiler)
Method: A third test was performed by giving chickens for meat (broilers) a feed having powdery acetylcysteine added thereto.
300 (150 males and 150 females) broiler-dedicated breed day-old chicks (broilers available from Nippon Chunky Co., Ltd.) are fed. As the chicks, about 350 birds (175 males and 175 females) were introduced, and individuals not having any abnormal health condition and having a close weight were selected and used in the test.
The nutritional value of this basic feed is adjusted so as to be lower than the index.
The concentration of acetylcysteine added to the basic feed was determined based on the aimed results for Chunky broiler (2014).
Three groups were assigned to the control zone and the test zone, respectively, and the chicks were raised until 49-day old.
Each flock of tested chicks was raised in an electrically heated windowless chicken house of a forced ventilation (air exhaust) type.
For vaccination, chicks vaccinated with Marek's vaccine and live fowl pox vaccine when born were introduced, and were additionally vaccinated with NB live vaccine at 4-day old and 15-day old and with live fowl pox vaccine at 21-day old.
The feed and drinking water were continuously given.

chickens for meat = conditions: 1% glycine in feed; cited from earlier work
[4] = 1 mg/day/Kg in drinking water, 166 days

CC(=O)N[C@@H](CS)C(=O)O [acetylcysteine, N-acetyl-L-cysteine]
weight at the end of the test relative to control zone (egg-laying hens [1]; 5-fold zone, 0.0072% acetylcysteine in feed, 4 weeks): approximately equal | egg production rate (egg-laying hens [1]; 5-fold zone, 0.0072% in feed): 98.6% | feed conversion rate, higher than that in the control zone (egg-laying hens [1]; feed contained 0.2% DL-methionine, zone not specified): 4.43% | weight at the end of the test, larger than that in the control zone (egg-laying hens [1]; standard zone, 0.0014% acetylcysteine in feed, 4 weeks): 0.5% | egg production rate (egg-laying hens [1]; standard zone, 0.0014% in feed): 99.2% | decrease of average egg weight in test zone compared to control zone (egg-laying hens [2]; [4]): 2.16% | increase of average egg production rate in test zone compared to control zone (egg-laying hens [2]; [4]): 1.13% | increase of number of eggs laid in test zone compared to control zone (egg-laying hens [2]; [4]): 1.67% | proportion of the feed conversion rate in the test zone to that in the control zone (egg-laying hens [2]; [4]): 96.50% and 96.48% | reduction (improvement) of feed conversion rate in test zone compared to control zone (egg-laying hens [2]; [4]): 3.52% | reduction of number of deaths and cullings in test zone compared to control zone (egg-laying hens [2]; [4]): 20% | feed conversion rate in the test zone (egg-laying hens [2]; 1 mg/day/Kg in drinking water, given one time for 5 days, 166 days, control zone 1.99): 1.92 | reduction of feed demand (egg-laying hens [2]; as shown in FIG. 3, test zone vs control zone): 4.67% | improvement of feed conversion rate in test zone vs control zone in consideration of the preparative test (egg-laying hens [2]; corrected for 1.59% increase in 20-day preparative test without agent): 5.11% | surface roughness of egg shells, visual observation, vs eggs of control zone (egg-laying hens [2]; eggs collected in the test zone): finer and smoother surfaces | improvement in feed conversion rate in the test of the old hens in the chicken farm (egg-laying hens [2]; old hens, chicken farm): more than 5% | calcium in solid products of feces washed with water (egg-laying hens [2]; test zone, calcium was found in the control zone): no calcium was found | feed conversion rate in the test zone relative to that in the control zone ([3]; 1 mg/Kg daily in feed, until 49-day old): 100.55% | feed efficiency in the test zone relative to that in the control zone ([3]; Weeks 4 to 7 of the second period): 101.54% | number of deaths and cullings ([3]; test zone, control zone 3 birds, Week 6 (sudden death syndrome)): 1 bird | growth rate ([3]; test zone, control zone 98%): 99.3% | feed efficiency in the test zone relative to that in the control zone ([3]; three weeks of the first period): 99.32% | feed efficiency in the test zone relative to that in the control zone ([3]; whole period, until 49-day old): 100.93%

NCC(=O)O [glycine]
weights of chickens of 7-day old vs without giving glycine (chickens for meat): smaller
